Measurements published in patent US11434219B2, “Purification of cannabinoids from crude cannabis oil” (TABA IP, LLC, priority 2018, dated 2022).
≈ marks a conversion by molar mass, not a printed value.

Experiment: Solvent survey: solubility of THCA in solvents
Assay type: physicochemical
Description: Crystallization of THCA solvent survey study is carried out according the general procedure described above at 0° C. using crystalline THCA standard (rather than cannabis oil). The solubility (g/mL) provided an indication of loading capacities: higher loading capacities are desirable to make the process more efficient. The theoretical yield of THCA is determined based on the purity of the standard, which was 97.4%.

CCCCCc1cc2c(c(O)c1C(=O)O)[C@@H]1C=C(C)CC[C@H]1C(C)(C)O2 [THCA, tetrahydrocannabinolic acid]
Solubility (g/mL) 22.8° C. (solvent 1-Butanol): 0.151 g/mL (≈ 421 mM) | Solubility (g/mL) 30° C. (solvent 1-Butanol): 0.258 g/mL (≈ 720 mM) | Solubility (g/mL) 40° C. (solvent 1-Butanol): 0.514 g/mL (≈ 1430 mM) | Solubility (g/mL) 22.8° C. (solvent Acetone): 0.818 g/mL (≈ 2280 mM) | Solubility (g/mL) 30° C. (solvent Acetone): 1.063 g/mL (≈ 2970 mM) | Solubility (g/mL) 40° C. (solvent Acetone): 1.440 g/mL (≈ 4020 mM) | Solubility (g/mL) 22.8° C. (solvent Acetonitrile): 0.562 g/mL (≈ 1570 mM) | Solubility (g/mL) 30° C. (solvent Acetonitrile): 0.953 g/mL (≈ 2660 mM) | Solubility (g/mL) 40° C. (solvent Acetonitrile): 1.230 g/mL (≈ 3430 mM) | Solubility (g/mL) 22.8° C. (solvent DMA): 0.498 g/mL (≈ 1390 mM) | Solubility (g/mL) 30° C. (solvent DMA): 0.650 g/mL (≈ 1810 mM) | Solubility (g/mL) 40° C. (solvent DMA): 0.892 g/mL (≈ 2490 mM) | Solubility (g/mL) 22.8° C. (solvent DMF): 0.612 g/mL (≈ 1710 mM) | Solubility (g/mL) 30° C. (solvent DMF): 0.929 g/mL (≈ 2590 mM) | Solubility (g/mL) 40° C. (solvent DMF): 1.171 g/mL (≈ 3270 mM) | Solubility (g/mL) 22.8° C. (solvent Ethyl Acetate): 0.555 g/mL (≈ 1550 mM) | Solubility (g/mL) 30° C. (solvent Ethyl Acetate): 0.931 g/mL (≈ 2600 mM) | Solubility (g/mL) 40° C. (solvent Ethyl Acetate): 1.216 g/mL (≈ 3390 mM) | Solubility (g/mL) 22.8° C. (solvent Heptane): 0.092 g/mL (≈ 257 mM) | Solubility (g/mL) 30° C. (solvent Heptane): 0.155 g/mL (≈ 432 mM) | Solubility (g/mL) 40° C. (solvent Heptane): 0.258 g/mL (≈ 720 mM) | Solubility (g/mL) 22.8° C. (solvent THF): 0.743 g/mL (≈ 2070 mM) | Solubility (g/mL) 30° C. (solvent THF): 1.057 g/mL (≈ 2950 mM) | Solubility (g/mL) 40° C. (solvent THF): 1.324 g/mL (≈ 3690 mM) | Solubility (g/mL) 22.8° C. (solvent n-Propanol): 0.140 g/mL (≈ 391 mM) | Solubility (g/mL) 30° C. (solvent n-Propanol): 0.360 g/mL (≈ 1000 mM) | Solubility (g/mL) 40° C. (solvent n-Propanol): 0.585 g/mL (≈ 1630 mM)
